Where “and” joins values, the source holds several entries; their conditions need not be identical. Equal entries are not always repeated. Inconclusive results are not listed. Calls of active or inactive are those of the source.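 The calls were made as follows: active = compound whose fitted half-maximal dose is at most twice its top tested dose in every repeat; inconclusive = mixed calls across repeats, weak flat response, or unreliable curve fit; inactive = all repeats flat, too weak, or wrong direction.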

The term AC50 denotes the concentration giving half of the maximal activity seen.

Glycogen synthase kinase-3 beta (Homo sapiens), sequence (P49841 whole entry, looked up): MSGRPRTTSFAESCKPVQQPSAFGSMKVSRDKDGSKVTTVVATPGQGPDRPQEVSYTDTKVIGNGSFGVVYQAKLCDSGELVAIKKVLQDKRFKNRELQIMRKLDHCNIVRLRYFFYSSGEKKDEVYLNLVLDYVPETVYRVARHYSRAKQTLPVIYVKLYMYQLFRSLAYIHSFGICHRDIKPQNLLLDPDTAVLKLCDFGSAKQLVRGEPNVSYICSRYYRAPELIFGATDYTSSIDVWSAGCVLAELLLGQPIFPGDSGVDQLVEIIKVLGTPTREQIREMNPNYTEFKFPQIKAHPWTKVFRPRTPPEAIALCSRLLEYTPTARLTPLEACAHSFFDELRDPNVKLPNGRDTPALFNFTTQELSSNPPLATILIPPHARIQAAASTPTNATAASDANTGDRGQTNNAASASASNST

The first test addresses Glycogen synthase kinase-3 beta (Homo sapiens) (UniProt P49841). Put plainly: inhibition of human GSK3beta kinase activity – biochemical, ADP-Glo luminescence, dry powder samples, SAR follow-up (AID 623998). The conditions noted are these: GSK3beta ADP-Glo luminescence kinase assay, 60 min. (ADP-Glo first removes unused ATP, then detects ADP through luciferase.)
`O/N=C/c1cn(-c2ccccc2)nc1-c1ccccc1`: the AC50 was 2.93 µM.

Consider `Cc1[nH]nc2c1C(c1cccc3nonc13)C1=C(CC(C)(C)CC1=O)N2` (configuration not stated), for which the AC50 was 0.05 µM.

As to `COc1ccccc1[C@@H]1C2=C(CC(C)(C)CC2=O)Nc2n[nH]c(C(F)(F)F)c21`, the AC50 was 0.0238 µM.

As to `Cc1[nH]nc2nc3c(c(-c4cccs4)c12)C(=O)CC(C)(C)C3`, the AC50 is 28.1 µM.

As for `Cc1[nH]nc2c1C(c1ccc(C(F)(F)F)cc1)C1=C(CC(C)(C)CC1=O)N2` (configuration not stated), the AC50 was 9.29 µM.

With `Cc1[nH]nc2c1C(c1ccccc1C(F)(F)F)C1=C(CC(C)(C)CC1=O)N2` (configuration not stated), the AC50 was 0.0425 µM.

`Cc1[nH]nc2c1C(c1ccc(C#N)cc1)C1=C(CC(C)(C)CC1=O)N2` (configuration not stated): the AC50 is 10.4 µM.

As to `COc1ccccc1C1C(C(C)=O)=C(C)Nc2n[nH]c(C)c21` (configuration not stated), the AC50 was 3 µM.

In the case of `Cc1[nH]nc2c1C(c1cccs1)C1C(=O)CC(C)(C)CC1=N2` (configuration not stated), the AC50 was 0.627 µM.

Turning to `Cc1[nH]nc2c1[C@H](c1ccccc1C(F)(F)F)C1=C(CC(C)(C)CC1=O)N2`, the AC50 was 5.57 µM.

Regarding `Cc1[nH]nc2c1C(c1ccccc1Br)C1=C(CC(C)(C)CC1=O)N2` (configuration not stated), the AC50 was 0.18 µM.

Turning to `Cc1[nH]nc2c1[C@@H](c1cccs1)C1=C(CC(C)(C)CC1=O)N2`, the AC50 was 1.91 µM.

On to `COc1ccccc1C1C2=C(CC(C)(C)CC2=O)Nc2n[nH]c(-c3ccccc3)c21` (configuration not stated), for which the AC50 was 1.55 µM.

For the compound `CC(C)COc1ccc(-c2nn(-c3ccccc3)cc2/C=N/O)cc1`, the AC50 is 3.08 µM.

With `Cc1[nH]nc2c1C(c1ccc(Br)cn1)C1=C(CC(C)(C)CC1=O)N2` (configuration not stated), the AC50 is 4.99 µM.

As to `CCc1[nH]nc2c1C(c1ccccc1OC)C1=C(CC(C)(C)CC1=O)N2` (configuration not stated), the AC50 is 0.0833 µM.

With `CC1(C)CC(=O)C2=C(C1)Nc1n[nH]c(C(F)(F)F)c1C2c1ccccc1` (configuration not stated), the AC50 is 0.0357 µM.

Consider `Cc1[nH]nc2c1C(C1CC1)C1=C(CC(C)(C)CC1=O)N2` (configuration not stated), for which the AC50 was 3.05 µM.

Turning to `COc1ccccc1C1C2=C(CC(C)(C)CC2=O)Nc2n[nH]c(C(F)(F)F)c21` (configuration not stated), the AC50 is 0.0132 µM and 0.128 µM.

With `Cc1[nH]nc2c1C(c1cccc(F)c1)C1=C(CC(C)(C)CC1=O)N2` (configuration not stated), the AC50 was 0.54 µM.

As to `CC1(C)CC(=O)/C(=C\c2cccc(F)c2C(F)(F)F)C(=Nc2cc(C(F)(F)F)[nH]n2)C1`, the AC50 is 2.63 µM.

In the case of `COc1ccccc1C1C2=C(CC3(CCCCC3)CC2=O)Nc2n[nH]c(C)c21` (configuration not stated), the AC50 is 0.278 µM.

As for `COc1ccccc1C1C2=C(CC(C)(C)CC2=O)Nc2n[nH]c(C(C)C)c21` (configuration not stated), the AC50 is 0.415 µM.

For `CC1(C)CC(=O)C2=C(C1)Nc1n[nH]c(C(F)(F)F)c1C2c1c(F)cccc1F` (configuration not stated), the AC50 is 0.0875 µM.

Regarding `O/N=C/c1cn(-c2ccccc2)nc1-c1ccc2c(c1)OCCO2`, the AC50 was 0.577 µM.

Turning to `Cc1[nH]nc2c1C(c1cccc(C#N)c1)C1=C(CC(C)(C)CC1=O)N2` (configuration not stated), the AC50 was 0.0523 µM.

Turning to `CC1(C)CC(=O)C2=C(C1)Nc1n[nH]c(C(F)(F)F)c1C2c1cc(F)ccc1C(F)(F)F` (configuration not stated), the AC50 is 0.0513 µM.

As for `Cc1[nH]nc2c1C(c1ccc3c(c1)OCO3)C1=C(CC(C)(C)CC1=O)N2` (configuration not stated), the AC50 is 4.61 µM.

As to `CC1(C)CC(=O)C2=C(C1)Nc1n[nH]c(C(F)(F)F)c1C2c1cc(F)ccc1OC(F)(F)F` (configuration not stated), the AC50 is 0.403 µM.

In the case of `CC(C)c1ccc(-c2nn(-c3ccccc3)cc2/C=N/O)cc1`, the AC50 is 0.737 µM.

`CC1(C)CC(=O)/C(=C\c2ccccc2C(F)(F)F)C(=Nc2cc(C(F)(F)F)[nH]n2)C1`: the AC50 is 3.11 µM.

For `Cc1[nH]nc2c1[C@@H](c1ccccc1C(F)(F)F)C1=C(CC(C)(C)CC1=O)N2`, the AC50 was 0.037 µM.

As to `COc1ccccc1C1C2=C(CCCC2=O)Nc2n[nH]c(C)c21` (configuration not stated), the AC50 is 3.42 µM.

With `COc1ccccc1C1C2=C(CCC(C)(C)C2=O)Nc2n[nH]c(C)c21` (configuration not stated), the AC50 was 0.515 µM.

`Cc1[nH]nc2c1C(c1ccccc1Cl)C1=C(CC(C)(C)CC1=O)N2` (configuration not stated): the AC50 is 0.3 µM.

As for `Cc1ccccc1C1C2=C(CC(C)(C)CC2=O)Nc2n[nH]c(C)c21` (configuration not stated), the AC50 is 0.455 µM.

For `Cc1[nH]nc2c1C(c1ccc(F)cc1)C1=C(CC(C)(C)CC1=O)N2` (configuration not stated), the AC50 was 2.96 µM.

`Cc1[nH]nc2c1C(c1ccc(Cl)s1)C1=C(CC(C)(C)CC1=O)N2` (configuration not stated): the AC50 is 1.14 µM.

For `Cc1[nH]nc2c1C(c1ccccn1)C1=C(CC(C)(C)CC1=O)N2` (configuration not stated), the AC50 is 1.02 µM.

Turning to `COc1ccccc1[C@H]1C2=C(CC(C)(C)CC2=O)Nc2n[nH]c(C(F)(F)F)c21`, the AC50 was 1.59 µM.

Take `CC1(C)CC(=O)C2=C(C1)Nc1n[nH]c(C(F)(F)F)c1C2c1ccccc1F` (configuration not stated): the AC50 was 0.184 µM.

For the compound `Cc1ccc(-c2nn(-c3ccccc3)cc2/C=N/O)cc1`, the AC50 was 0.313 µM.

Turning to `Cc1[nH]nc2c1C(C)(c1ccccc1)C1=C(CC(C)(C)CC1=O)N2` (configuration not stated), the AC50 is 0.308 µM.

Take `Cc1[nH]nc2c1C(c1ccccc1C#N)C1=C(CC(C)(C)CC1=O)N2` (configuration not stated): the AC50 is 0.134 µM.

For the compound `COc1ccccc1C1C2=C(CC(C)(C)CC2=O)Nc2[nH]ncc21` (configuration not stated), the AC50 is 0.122 µM.

In the case of `CC1(C)CC(=O)C2=C(C1)Nc1n[nH]c(C(F)(F)F)c1C2c1ccc(F)cc1C(F)(F)F` (configuration not stated), the AC50 is 0.173 µM.

As for `O/N=C/c1cn(-c2ccccc2)nc1-c1ccc(Cl)cc1`, the AC50 was 0.0452 µM.

Regarding `Cc1cccc(C2C3=C(CC(C)(C)CC3=O)Nc3n[nH]c(C)c32)c1` (configuration not stated), the AC50 was 0.614 µM.

For `Cc1[nH]nc2c1C(c1cccc(C(F)(F)F)c1)C1=C(CC(C)(C)CC1=O)N2` (configuration not stated), the AC50 was 0.199 µM.

Take `CSc1ccccc1C1C2=C(CC(C)(C)CC2=O)Nc2n[nH]c(C)c21` (configuration not stated): the AC50 was 0.0324 µM.

Turning to `Cc1[nH]nc2c1C(C)C1=C(CC(C)(C)CC1=O)N2` (configuration not stated), the AC50 was 0.534 µM.

`Cc1[nH]nc2c1C(c1cccc(Cl)c1)C1=C(CC(C)(C)CC1=O)N2` (configuration not stated): the AC50 is 0.919 µM.

As for `COc1ccc(-c2nn(-c3ccccc3)cc2/C=N/O)cc1OC`, the AC50 is 0.617 µM.

Regarding `Cc1[nH]nc2c1C(c1cccnc1)C1=C(CC(C)(C)CC1=O)N2` (configuration not stated), the AC50 is 0.408 µM.

On to `COc1ccccc1C1C2=C(CC(C)(C)CC2=O)Nc2n[nH]c(C)c21` (configuration not stated), for which the AC50 was 0.124 µM.

For the compound `COc1ccccc1/C=C1\C(=O)CC(C)(C)CC1=Nc1cc(C(F)(F)F)[nH]n1`, the AC50 is 7.5 µM.

`O/N=C/c1cn(-c2ccccc2)nc1-c1ccc(F)cc1`: the AC50 was 0.44 µM.

As for `Cc1[nH]nc2c1C(c1ccn[nH]1)C1=C(CC(C)(C)CC1=O)N2` (configuration not stated), the AC50 is 1.88 µM.

Consider `Cc1ccc(C2C3=C(CC(C)(C)CC3=O)Nc3n[nH]c(C)c32)cc1` (configuration not stated), for which the AC50 was 2.16 µM.

Take `COc1ccccc1C1C2=C(CC(C)(C)CC2=O)Nc2n[nH]c(C(C)(C)C)c21` (configuration not stated): the half-maximal activity concentration (AC50) is 0.834 µM.

For `Cc1[nH]nc2c1[C@H](c1cccs1)C1=C(CC(C)(C)CC1=O)N2`, the AC50 was 11.6 µM.

Take `COc1ccc(C2C3=C(CC(C)(C)CC3=O)Nc3n[nH]c(C)c32)cc1` (configuration not stated): the AC50 was 14.7 µM.

On to `CC1(C)CC(=O)C2=C(C1)Nc1n[nH]c(C(F)(F)F)c1C2c1cc(F)ccc1F` (configuration not stated), for which the AC50 was 0.451 µM.

For `Cc1[nH]nc2c1C(c1ccsc1)C1=C(CC(C)(C)CC1=O)N2` (configuration not stated), the AC50 is 1.37 µM.

Take `COc1cccc(-c2nn(-c3ccccc3)cc2/C=N/O)c1`: the AC50 is 1.76 µM.

With `Cc1[nH]nc2c1C(c1ccc(Cl)cc1)C1=C(CC(C)(C)CC1=O)N2` (configuration not stated), the concentration at half-maximal activity (AC50) was 4.44 µM.

In the case of `COc1cccc(C2C3=C(CC(C)(C)CC3=O)Nc3n[nH]c(C)c32)c1` (configuration not stated), the AC50 was 1.16 µM.

In the case of `Cc1[nH]nc2c1C(c1ccc(F)cc1Cl)C1=C(CC(C)(C)CC1=O)N2` (configuration not stated), the AC50 is 2.29 µM.

On to `O=S(=O)(Nc1ccccn1)c1ccc(N=Cc2c(O)[nH]c3ccc4ncsc4c23)cc1`, for which the AC50 is 0.807 µM.

Still in this test, the particulars now being: GSK3beta ADP-Glo luminescence kinase assay, 60 min; at 46 µM (top of the series).
In the case of `COc1ccccc1C1C2=C(CC(C)(C)CC2=O)Nc2ccccc21` (configuration not stated), the “activity, negative = inhibition” value was “inactive”.

Take `COc1ccc(-c2nn(-c3ccccc3)cc2C(=O)O)cc1`: the “activity, negative = inhibition” value is “inactive”.

For `CN(C)Cc1cn(-c2ccccc2)nc1-c1ccccc1`, the “activity, negative = inhibition” value was “inactive”.

The values are drawn from PubChem BioAssay AID623998 (Broad Institute, 2012).
